Results on 1 compound are retold here after US20240025856A1, “1,2,3,4-TETRAHYDROQUINOLINE DERIVATIVES AS INHIBITORS OF THE YAP/TAZ-TEAD ACTIVATION FOR TREATING CANCER” (KATHOLIEKE UNIVERSITEIT LEUVEN, priority 2020, published 2024).

The subject of assay [1] is NCI-1H226. Kind of assay: Mesothelioma cell line proliferation assay, H226 (ATPlite). The settings on record: Homo sapiens, NCI-H226, 144 h, 6 days with compound. The format is cell-based. The procedure, abridged: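 H226 and H2052 mesothelioma cells, 1500 per well in RPMI with 10% FBS, attached overnight and then exposed to DMSO-dissolved compounds in dose-response for 6 days at 37 °C. Viability measured by ATPlite luminescence, converted to percent inhibition for EC50.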

Assay [2] has as its system KMRC3. In words: Cancer cell line proliferation assay (CellTiter-Glo), KMRC3. It counts as cell-based. The settings on record: 144 h, Kidney, LATS1 HOM DEL, 6 days. How it is done: (§1) All the cell lines are cultured in the media supplemented with 10-20% fetal bovine serum, in the temperature of 37° C., 5% CO2 and 95% humidity. The indicated cell lines (all sourced from the ATCC cell culture collection) are plated in 96-Well Flat Clear Bottom Black Polystyrene TC-Treated Microplates with the final cell density of 4×10^3 cells/well. Cells are incubated overnight and then compounds, dissolved in DMSO, are added in dose-response. Cells are incubated with compound dilutions for another 6 days. Cell viability is quantitated using CellTiter-Glo reagent (Perkin Elmer) and measured using an EnVision Multi Label Reader.

Assay [3] relates to NCI-H226. In words: Cancer cell line proliferation assay (CellTiter-Glo), NCI-H226. It counts as cell-based. Particulars: Homo sapiens, 144 h, Lung (mesothelioma), NF2 HOM DEL/LATS1 HOM DEL, 6 days. How it is done: as §1
In assay [4] the test system is RL95-2. In words: Cancer cell line proliferation assay (CellTiter-Glo), RL95-2. The settings on record: Homo sapiens, 144 h, Endometrial (adeno-squamous), LATS1 HOM DEL, 6 days. It counts as cell-based. How it is done: as §1
Assay [5] relates to C-33 A. In words: Cancer cell line proliferation assay (CellTiter-Glo), C-33 A. It counts as cell-based. The settings on record: Homo sapiens, 144 h, Cervical (squamous), L914Wfs*10 LATS2, 6 days. How it is done:
as §1

Assay [6] has as its system Calu-1. In words: Cancer cell line proliferation assay (CellTiter-Glo), Calu-1. It counts as cell-based. The settings on record: Homo sapiens, 144 h, Lung (squamous), NF2 HOM DEL/LATS2 HOM DEL, 6 days. As for the experimental part:
as §1

Assay [7] has as its system selected tumor cell lines. Kind of assay: Cancer cell line proliferation assays, whole panel of selected tumor cell lines. Particulars: cancer cell lines of Table 5. The format is cell-based. How it is done: as §1
Assay [8] relates to NCI-H226 tumor cells. In words: In vivo efficacy in a subcutaneous human lung cancer xenograft model (NCI-H226 mesothelioma). Also noted: species or system Female BALB/c Nude Mice. The settings on record: 100 mg/kg, p.o., BID × 21 days. How it is done:
The NCI-H226 tumor cells were maintained in vitro with RPMI-1640 medium supplemented with 10% fetal bovine serum at 37° C. in an atmosphere of 5% CO2 in air. The cells in exponential growth phase were harvested and the cell numbers were quantitated by hemocytometer and cell viability was quantified by Trypan Blue counting before tumor inoculation. Balb/c nude mouse were inoculated with subcutaneously in the right front flank regions with 1×10^7 of NCI-H226 tumor cells in 0.1 mL of PBS mixed with 0.1 ml of Matrigel (1:1) for tumor development. All animals were randomized based on the tumor sizes as well as body weights and randomly allocated to the different study groups (8 mice per group). The randomization started when the mean tumor size at the right rear flank region had reached approximately 172 mm^3. The date of randomization was denoted as Day 0.
Cpd. No. 084 was formulated in Vehicle 1 (PEG400 (40%)+PG (30%)+WFI (30%)) as a 10 mg/ml solution, and dosed orally, twice daily, using 10 μl/g (final dose is 100 mg/kg) for 21 days. Cpd. No. 001 was formulated in Vehicle 2 (PEG400 (65%)+PG (20%)+WFI (15%)) as a 10 mg/ml solution, and dosed orally, twice daily, using 10 μl/g (final dose is 100 mg/kg) for 21 days. After tumor cell inoculation, the animals were checked daily for morbidity and mortality. At the time of routine monitoring, the animals were checked for any effects of tumor growth and treatments on behavior such as mobility, food and water consumption, body weight gain/loss (body weight was measured at least two times per week), and any other abnormalities. Mortality and observed clinical signs were recorded for individual animals. Tumor volumes were measured at least two times weekly in two dimensions using a caliper, and the volume was expressed in mm^3 using the formula: V=(L×W×W)/2, where V is tumor volume, L is tumor length (the longest tumor dimension) and W is tumor width (the longest tumor dimension perpendicular to L).
Tumor growth inhibition (TGI) was used as an indicator of antitumor activities, and was calculated from the relative tumor volumes of the control and treatment groups due to the variance of tumor volumes among groups at Day 0. TGI (%)=(1-T/C)×100%; T/C=MTVt/MTVc, MTVt: mean tumor volume in the treatment groups at a specific measurement day, MTVc: mean tumor volume in the control group at a specific measurement day. Moreover, the difference of TGIs between control and treatment groups was analyzed at a measurement day when all or most of the mice in the control groups were alive. In addition, body weight changes over time in each group were used as an index to evaluate the tolerability of test drugs, and were calculated from the average percentage of body weight changes of each individual mouse relative to their initial body weight at randomization using the following formula: group BW %=mean of ((BWt−BW0)/BW0×100%), BWt: body weight at Day t, BW0: body weight at Day 0.
To compare relative tumor volumes of different groups at a pre-specified day, we first used Bartlett's test to check the assumption of homogeneity of variance across all groups. When the p-value of Bartlett's test is >0.05, we run one-way ANOVA to test overall equality of means across all groups. If the p-value of the one-way ANOVA is <0.05, we further perform post hoc testing by running Tukey's HSD (honest significant difference) tests for all pairwise comparisons, and Dunnett's tests for comparing each treatment group with the vehicle group. When the p-value of Bartlett's test is <0.05, we run Kruskal-Wallis test to test overall equality of medians among all groups. If the p-value of the Kruskal-Wallis test is <0.05, we further perform post hoc testing by running Conover's non-parametric test for all pairwise comparisons or for comparing each treatment group with the vehicle group, both with single-step p-value adjustment. All tests were two-sided unless otherwise specified, and p-values<0.05 were regarded as statistically significant. […]

Where [9] appears, read: day 20, against the compound's own vehicle group.

As for `C=CC(=O)NC1Cc2ccccc2N(c2ccc(C(F)(F)F)cc2)C1` (centres unmarked) [compound 001, N-(1-(4-(trifluoromethyl)phenyl)-1,2,3,4-tetrahydroquinolin-3-yl)acrylamide], the EC50 in assay [1] was less than 1000 nM. The GI50 worked out at 20 nM in assay [2]; 40 nM in assay [3]; 50 nM in assay [4]; 100 nM in assay [5]; 120 nM in assay [6]. In addition, in assay [7], the “inhibitory activity on the cell proliferation of the selected tumor cell lines” value is “strong inhibitory activity”. Besides, the “anti-tumor activity in the xenograft mesothelioma model” value in assay [8] is “highly statistically significant and strong anti-tumor activity”. The “Mean Tumor Volume (mm^3) on day 20” value in assay [8] (day 20, 8 mice per group) was 217.26 ± 45.21 (8) mm^3. In addition, in assay [8] (setting [9]), the “T/C (%)” value came out at 49.62%. The “TGI (%)” value in assay [8] (setting [9]) is on record as 50.38%.
